Source: patent publication US20190274974A1, “Treatment of Pain Associated with Trigeminal Neuralgia” (priority 2011, published 2019)
“Also recorded” adds a separate entry of the source.

Experiments:
CCI-SN rats = type: in vivo, rat
Experimental: Rats are anaesthetized with sodium pentobarbital (50 mg/kg i.p.). Unilateral CCI-SN is performed under direct visual control using a Zeiss microscope (10-25×) essentially as described by Bennett and Xie (G. J. Bennett et al., Pain, 33 (1988) 87-107).
Mechanical sensitivity is determined with a graded series of von Frey filaments (Bioseb, Bordeaux, France; bending force: 0.07-60.0 g). The stimuli are applied within the SN territory (midplantar surface of the left hindpaw) three times at the nerve-injured side (ipsilateral, left) and then at the contralateral side for a total of 6 applications of each filament per rat, always beginning with the filament producing the lowest force. The von Frey filaments are applied at least 3 seconds after the rats returned to their initial resting state. For each session, the complete series of von Frey filaments is tested in increasing force order. The minimal force filament causing a hindpaw withdrawal response allows determination of the mechanical response threshold. The 60 g filament is the cut-off threshold.
For studying the effects of acute treatment with tapentadol in CCI-SN rats, tapentadol (1, 3 and 10 mg/kg i.p.) or its vehicle (0.9% NaCl i. p.) was injected acutely 14 days after surgery. Sham-operated rats were treated in parallel. Pressure threshold values to trigger nocifensive responses to von Frey filaments application onto the plantar surface of ipsilateral hindpaw were determined at various times after acute injection of tapentadol or saline. Cut-off was fixed at 60 g pressure.
For studying the effects of subchronic treatment with tapentadol in CCI-SN rats, starting on day 16 (Time=D) after surgery, they received i.p. injections of tapentadol (10 mg/kg, twice daily, at 10:00 AM and 6:00 PM) or saline (at the same day times as the drug) for four days. On the following day (day 20 after surgery), both tapentadol- and saline-pretreated CCI-SN rats were i.p. injected with Tapentadol (10 mg/kg; Time=0) and then subjected to von Frey filaments'test applied to ipsilateral hindpaw for determination of pressure threshold values at various times thereafter.
In a second part of this study (B), unilateral chronic constriction injury to the sciatic nerve was performed two weeks before acute treatment with reboxetine (10 mg/kg i.p.), tapentadol (10 mg/kg i.p.) or saline (0.5 ml i.p./rat). Pressure threshold values were then determined at various times using von Frey filaments test applied to ipsilateral hindpaw.
Morphine (1, 3 and 10 mg/kg s.c.) or its vehicle (0.9% NaCl) was injected acutely 14 days after CCI-SN surgery. Sham-operated rats were treated in parallel. Pressure threshold values to trigger nocifensive responses to von Frey filaments application onto the plantar surface of ipsilateral hindpaw were determined at various times after acute injection of morphine or saline.
14 days after CCI-SN surgery, rats were injected with reboxetine (10 mg/kg i.p.) or its vehicle (0.9% NaCl) followed, 15 min later, by morphine (1 mg/kg s.c.) or its vehicle (0.9% NaCl) and subjected to von Frey filament tests for the following 4 hours. Sham-operated rats were treated in parallel.
The results are depicted in FIG. 11.

[1] = test system: mRNA encoding ATF3, IL-6, BDNF and iNOS; test: Real-time qRT-PCR of mRNA levels in ganglia and central tissues of CCI-SN rats; type: in vivo, rat; conditions: subchronic 10 mg/kg i.p. twice daily; ipsilateral DRG and dorsal quadrant of lumbar spinal cord; day 20
Experimental: Real-time qRT-PCR determinations were made on the 20th day after CCI-SN or sham operation. Saline or Tapentadol was administered at days 16-20 under treatment conditions according to Example 2 (subchronic treatment conditions). Rats were decapitated 4 h after the last injection on day 20, tissues were immediately dissected in the cold (0° C.) and processed for mRNA extraction and quantification as described by Latrémolière et al. (J. Neurosci. 2008, 28, 8489-8501).
mRNA levels are expressed with reference to transcript encoding the […] GaPDH (glyceraldehyde 3-phosphate dehydrogenase). Each bar is the mean±S.E.M. of 4-6 independent determinations.

[2] = test system: mRNA encoding ATF3, IL-6, BDNF and iNOS; test: Real-time qRT-PCR of mRNA levels in ganglia and central tissues of CCI-ION rats; type: in vivo, rat; conditions: subchronic 10 mg/kg i.p. twice daily; ipsilateral trigeminal ganglion and spinal nucleus of the trigeminal nerve; day 20
BDNF-induced allodynia = test: Mechanical allodynia induced by intrathecal administration of BDNF in healthy rats (von Frey filaments test); type: in vivo, rat
Experimental: In a first part of this study, BDNF (0.3 ng in 25 μl of saline per rat) or saline (25 μl) was injected intrathecally in adult male rats slightly anesthetized with isoflurane (according to Mestre et al. (1994), J. Pharmacol. Toxicol. Meth., 32, 197-200), and animals were subjected to von Frey filaments test applied to hindpaws at various times thereafter.
In a second part of this study, tapentadol (3 or 10 mg/kg i.p.) or saline was administered to rats on the 7th day (Time=0 on abscissa) after intrathecal injection of BDNF (Time=C) as described above. Pressure threshold values were determined using von Frey filaments test applied to hindpaws.
In a first part of this study (A), reboxetine (10 mg/kg i.p.; mesylate, Ascent Scientific, Bristol, UK), tapentadol (10 mg/kg i.p.) or saline (0.5 ml i.p./rat) was injected on the 7th day after intrathecal administration of BDNF (0.3 ng in 25 μl of saline per rat). Pressure threshold values were determined at various times thereafter using von Frey filaments test applied to hindpaws.

[3] = human, in vivo; cited from earlier work

SMILES: CC[C@@H](c1cccc(O)c1)[C@@H](C)CN(C)C [tapentadol, (−)-(1R,2R)-3-(3-dimethylamino-1-ethyl-2-methyl-propyl)-phenol]
- increase in pressure threshold value (CCI-SN rats; 1 mg/kg i.p., acute, first 15-30 min after injection, non significant): approximately 40%
- effect on pressure threshold values (CCI-SN rats; 3 mg/kg i.p., acute): increased pressure threshold values, but to a lower extent than 10 mg/kg i.p.
- anti-allodynic effect of last administration after subchronic pretreatment (sensitization/desensitization) (CCI-SN rats; 10 mg/kg i.p. twice daily for four days or saline, then 10 mg/kg i.p. on day 20): produced the same anti-allodynic effects in saline-pretreated and tapentadol-pretreated rats; also recorded: neither in CCI-SN rats nor in those with CCI-ION, any sign of sensitization or desensitization
- pressure threshold values compared to healthy control values (CCI-SN rats; 10 mg/kg i.p., acute, 15-30 min after administration): no longer differed from healthy control values
- mechanical allodynia compared to saline-treated CCI-SN rats (CCI-SN rats; 10 mg/kg i.p., acute, 90 min after injection): did not significantly differ from that measured in saline-treated CCI-SN rats
- pressure threshold values after the last injection under subchronic treatment (CCI-SN rats; 10 mg/kg i.p., first 45 min after last injection): markedly increased pressure threshold values
- dose dependence of anti-allodynic effect (CCI-SN rats; 1-10 mg/kg i.p. dose range, acute): clear dose-dependent anti-allodynic effect
- levels of mRNA encoding ATF3, IL-6, BDNF and iNOS versus saline-treated CCI-SN rats [1]: not significantly different
- ATF3, IL-6, BDNF and iNOS mRNA levels in CCI-ION rats [2]: no significant effects
- time at which the maximal increase in pressure threshold was reached (BDNF-induced allodynia; 10 mg/kg i.p.): 15 min
- pressure threshold values compared to untreated healthy rats (BDNF-induced allodynia; 10 mg/kg i.p., 15-30 min after injection): return of pressure threshold values up to levels determined in untreated healthy rats
- reversal of BDNF-induced allodynia, dose dependence (BDNF-induced allodynia; 3 or 10 mg/kg i.p., 7th day after intrathecal BDNF): reversed BDNF-induced allodynia in a dose-dependent manner
- pain-alleviating action relative to morphine [3]: two to three times less
